Patent US7514411B2, “Acylated benzylmaltosides as inhibitors of smooth muscle cell proliferation” (Wyeth, priority 1998, dated 2009)
Counter-ions that a name gives are not always drawn.

System: Porcine Smooth Muscle Cell
Assay: Effects of compounds on cell proliferation using 3H thymidine incorporation
Assay type: cell-based
Conditions: @ 50 μM
Protocol: The compounds of this invention are useful as antiproliferative agents. The following procedures show the evaluation of representative compounds of this invention in standard pharmacological test procedure which measured ability of the evaluated compound to inhibit smooth muscle cell proliferation
Effects of Compounds On Cell Proliferation Using ^3H Thymidine Incorporation
Human and porcine smooth muscle cells were tested in early passage (generally passage 3-7) at sub-confluent conditions. Cultures were grown in 16 mm (24 well) multi-well culture dishes in medium 199 supplemented with 10% fetal bovine serum and 2% antibiotic/antimycotic. At sub-confluence, the cells were placed in a defined serum free medium (AIM-V; Gibco) for 24-48 h prior to initiating the experimental protocol.
Compounds were added to each well at 50 fold dilution (20 μL/well) and the plates were incubated for 24-36 h at 37° C. in 5% CO2. Compounds were initially dissolved in 50% ethanol and serially diluted into media. Compounds were routinely evaluated at concentrations from 1 to 100 μM. As a control, grade II porcine intestinal mucosal heparin (sodium salt) was routinely evaluated in all cell preparations at concentrations from 0.1 to 100 μg/mL.
At the completion of the test procedure, plates were placed on ice, washed three times with ice cold phosphate buffered saline (PBS) and incubated in ice cold 10% trichloroacetic acid (TCA) got 30 min to remove acid soluble proteins. Solution was transferred to scintillation vials containing 0.4 N HCl (500 μL/vial to neutralize NaOH) and each well was rinsed two times with water (500 μL) for a total volume of 2 mL/vial.
Data was obtained, in triplicate, for both control and experimental samples. Control (100%) data was obtained from maximally stimulated cells, as the result of growth factor or serum stimulation. Experimental data was obtained from cells maximally stimulated with growth factor or serum and treated with compound. Data are expressed as an IC50 or percent inhibition in Table I below.

| SMILES | Porcine Smooth Muscle Cell Antiproliferation percent inhibition |
| --- | --- |
| O=[N+]([O-])c1cc(CS[C@@H]2O[C@H](CO)[C@@H](O[C@H]3O[C@H](CO)[C@@H](O)[C@H](O)[C@H]3O)[C@H](O)[C@H]2O)ccc1Cl [Example 18, (4-Chloro-3-nitro-benzyl)-1-deoxy-1-thio-β-D-maltoside] | 25% @ 50 |
| CC(=O)Nc1cc(CSC2OC(CO)C(OC3OC(CO)C(O)C(O)C3O)C(O)C2O)ccc1Cl (stereo not drawn) [Example 19] | 28% @ 50 |

Same assay, conditions: @ 100 μM

| SMILES | Porcine Smooth Muscle Cell Antiproliferation percent inhibition |
| --- | --- |
| Cc1ccc(CO[C@@H]2O[C@H](Cn3cnc([N+](=O)[O-])c3)[C@@H](O[C@H]3O[C@H](Cn4cnc([N+](=O)[O-])c4)[C@@H](O)[C@H](O)[C@H]3O)[C@H](O)[C@H]2O)cc1[N+](=O)[O-] [Example 22, 5-{[6,6′-Dideoxy-6,6′-bis(4-nitro-imidazol-1-yl)-β-maltosyl]-oxy-methyl}-2-methyl-1-nitrobenzene] | 23% @ 100 |

Same assay, conditions: @ 500 μM

| SMILES | Porcine Smooth Muscle Cell Antiproliferation percent inhibition |
| --- | --- |
| CC(=O)Nc1cc(COC2OC(CO)C(OC3OC(CO)C(O)C(O)C3O)C(O)C2O)ccc1Cl [Example 9, N-[2-Chloro-5-(β-D-maltosyl-oxymethyl)-phenyl]-acetamide] | 0% @ 500 |

Same assay, conditions: Sus scrofa; @ 50 μM; read-out: Porcine Smooth Muscle Cell Antiproliferation percent inhibition

| SMILES | inhibition at 50 µM |
| --- | --- |
| O=C(Nc1cc(CO[C@@H]2O[C@H](CO)[C@@H](O[C@H]3O[C@H](CO)[C@@H](O)[C@H](O)[C@H]3O)[C@H](O)[C@H]2O)ccc1Cl)c1cccnc1 [Example 16, N-[2-Chloro-5-[[(4-O-α-D-glucopyranosyl-β-D-glucopyranosyl)oxy]methyl]phenyl]-3-pyridinecarboxamide] | 18% |

Same assay, conditions: serum/growth factor stimulated cells, 3H thymidine incorporation, 24-36 h; read-out: Porcine Smooth Muscle Cell Antiproliferation IC50

| SMILES | IC50 |
| --- | --- |
| CC(=O)OC[C@H]1O[C@H](O[C@H]2[C@H](OC(C)=O)[C@@H](OC(C)=O)[C@H](OCc3ccc(Cl)c([N+](=O)[O-])c3)O[C@@H]2COC(C)=O)[C@H](OC(C)=O)[C@@H](OC(C)=O)[C@@H]1OC(C)=O [Example 1, 4-Chloro-3-nitro-benzyl-β-D-maltoside heptaacetate] | 850 nM |
| CC(=O)OC[C@H]1O[C@H](O[C@H]2[C@H](OC(C)=O)[C@@H](OC(C)=O)[C@H](OCc3ccc(Cl)c(NC(=O)[C@@H](N)CC(=O)OC(C)(C)C)c3)O[C@@H]2COC(C)=O)[C@H](OC(C)=O)[C@@H](OC(C)=O)[C@@H]1OC(C)=O [Example 2, N-{5-[(Hepta-O-acetyl-β-D-maltosyloxy)-methyl]-2-chloro-phenyl}-L-aspartamide-γ-tert-butyl ester] | 4610 nM |
| CC(=O)OC[C@H]1O[C@H](O[C@H]2[C@H](OC(C)=O)[C@@H](OC(C)=O)[C@H](OCc3ccc(Cl)c(NC(=O)[C@H](C)NC(=O)OCC4c5ccccc5-c5ccccc54)c3)O[C@@H]2COC(C)=O)[C@H](OC(C)=O)[C@@H](OC(C)=O)[C@@H]1OC(C)=O [Example 3, N-{2-Chloro-5-[(2,2′,3,3′,4′,6,6′)-hepta-O-acetyl-β-D-maltosyl-oxymethyl]-phenyl}-(9H-fluoren-9-ylmethoxycarbonyl)-L-alaninamide] | 1710 nM |
| CC(=O)OC[C@H]1O[C@H](O[C@H]2[C@H](OC(C)=O)[C@@H](OC(C)=O)[C@H](OCc3ccc(Cl)c(NC(=O)c4ccc(C(=O)c5ccccc5)cc4)c3)O[C@@H]2COC(C)=O)[C@H](OC(C)=O)[C@@H](OC(C)=O)[C@@H]1OC(C)=O [Example 4, 4-Benzoyl-N-{2-chloro-5-[(2,2′,3,3′,4′,6,6′-hepta-O-acetyl-β-D-maltosyl)-oxy-methyl]-phenyl}-benzamide] | 164 nM |
| CC(=O)OC[C@H]1O[C@@H](SCc2ccc(Cl)c([N+](=O)[O-])c2)[C@H](OC(C)=O)[C@@H](OC(C)=O)[C@@H]1O[C@H]1O[C@H](COC(C)=O)[C@@H](OC(C)=O)[C@H](OC(C)=O)[C@H]1OC(C)=O [Example 5, (4-Chloro-3-nitro-benzyl)-hepta-O-acetyl-1-thio-β-D-maltoside] | 1140 nM |
| CC(=O)OC[C@H]1O[C@@H](SCc2ccc(Cl)c(N)c2)[C@H](OC(C)=O)[C@@H](OC(C)=O)[C@@H]1O[C@H]1O[C@H](COC(C)=O)[C@@H](OC(C)=O)[C@H](OC(C)=O)[C@H]1OC(C)=O [Example 6, (3-Amino-4-chloro-benzyl) hepta-O-acetyl-1-thio-β-D-maltoside] | 667 nM |
| CC(=O)Nc1cc(CS[C@@H]2O[C@H](COC(C)=O)[C@@H](O[C@H]3O[C@H](COC(C)=O)[C@@H](OC(C)=O)[C@H](OC(C)=O)[C@H]3OC(C)=O)[C@H](OC(C)=O)[C@H]2OC(C)=O)ccc1Cl [Example 7] | 7970 nM |
| CC(=O)OC[C@H]1O[C@H](O[C@H]2[C@H](OC(C)=O)[C@@H](OC(C)=O)[C@H](OCc3ccc(C#N)c([N+](=O)[O-])c3)O[C@@H]2COC(C)=O)[C@H](OC(C)=O)[C@@H](OC(C)=O)[C@@H]1OC(C)=O [Example 8, 5-[(Hepta-O-acetyl-β-D-maltosyl)-oxy-methyl]-2-cyano-1-nitrobenzene] | 2050 nM |
| CC(=O)Nc1cc(CO[C@@H]2O[C@H](CO[Si](C)(C)C(C)(C)C)[C@@H](O[C@H]3O[C@H](CO[Si](C)(C)C(C)(C)C)[C@@H](O)[C@H](O)[C@H]3O)[C@H](O)[C@H]2O)ccc1C [Example 10, N-{5-[6,6′-Di-O-(tert-butyl-dimethyl-silyl)-β-D-maltosyloxy-methyl]-2-methyl-phenyl}-acetamide] | 6100 nM |
| CC(=O)Nc1cc(CO[C@@H]2O[C@H](CO[Si](C)(C)C(C)(C)C)[C@@H](O[C@H]3O[C@H](CO[Si](C)(C)C(C)(C)C)[C@@H](O)[C@H](O)[C@H]3O)[C@H](O)[C@H]2O)ccc1Cl [Example 11, N-{2-Chloro-5-[6,6′-di-O-(tert-butyl-dimethyl-silvl)-β-D-maltosyloxy-methyl]-phenyl}-acetamide] | 3900 nM |
| CC(=O)Nc1cc(CO[C@@H]2O[C@H](COC(=O)c3ccccc3)[C@@H](O[C@H]3O[C@H](COC(=O)c4ccccc4)[C@@H](O)[C@H](O)[C@H]3O)[C@H](O)[C@H]2O)ccc1Cl [Example 12, N-{2-Chloro-5-[([6,6′-di-O-benzoyl-β-D-maltosyl]oxy)methyl]phenyl}-acetamide] | 390 to 2200 nM |
| CC(=O)Nc1cc(CO[C@@H]2O[C@H](COC(=O)c3ccccc3)[C@@H](O[C@H]3O[C@H](COC(=O)c4ccccc4)[C@@H](OC(C)=O)[C@H](OC(C)=O)[C@H]3OC(C)=O)[C@H](OC(C)=O)[C@H]2OC(C)=O)ccc1Cl [Example 13, N-{2-Chloro-5-[([6,6′-di-O-benzoyl-2,2′,3,3′,4′-penta-acetyl-β-D-maltosyl]oxy)methyl]phenyl}-acetamide] | 360 nM |
| O=C(OC[C@H]1O[C@H](O[C@H]2[C@H](O)[C@@H](O)[C@H](OCc3ccc(Cl)c([N+](=O)[O-])c3)O[C@@H]2COC(=O)c2cccnc2)[C@H](O)[C@@H](O)[C@@H]1O)c1cccnc1 [Example 14, (4-Chloro-3-nitrophenyl)methyl-4-O-[6-O-(3-pyridinylcarbonyl)-α-D-glucopyranosyl]-β-D-glucopyranoside-6-(3-pyridinecarboxylate)] | 6560 nM |
| O=C(OC[C@H]1O[C@H](O[C@H]2[C@H](O)[C@@H](O)[C@H](OCc3ccc(Cl)c([N+](=O)[O-])c3)O[C@@H]2CO)[C@H](O)[C@@H](O)[C@@H]1O)c1cccnc1 [Example 15, (4-Chloro-3-nitrophenyl)methyl-4-O-[6-O-(3-pyridinylcarbonyl)-α-D-glucopyranosyl]-β-D-glucopyranoside] | 73200 nM |
| O=C(Nc1cc(COC2OC(COC(=O)c3ccccc3)C(OC3OC(CO)C(O)C(O)C3O)C(O)C2O)ccc1Cl)c1cccnc1 (stereo not drawn) [Example 17, Benzoic acid 6-{4-chloro-3-[(pyridine-3-carbonyl)-amino]-benzyloxy}-4,5-dihydoxy-3-(3,4,5-trihydroxy-6-hydroxymethyl-tetrahydro-pyran-2-yloxy)-tetrahydro-pyran-2-ylmethyl ester hydrochloride] | 245 nM |
| Cc1ccc(S(=O)(=O)OC[C@H]2O[C@H](O[C@H]3[C@H](O)[C@@H](O)[C@H](OCc4ccc(C)c([N+](=O)[O-])c4)O[C@@H]3COS(=O)(=O)c3ccc(C)cc3)[C@H](O)[C@@H](O)[C@@H]2O)cc1 [Example 20, 5-{[6,6′-Bis-O-(4-toluenesulfonyl)-β-maltosyl]-oxy-methyl}-2-methyl-1-nitrobenzene] | 740 nM |
| CC(=O)O[C@@H]1[C@@H](OC(C)=O)[C@@H](O[C@H]2[C@H](OC(C)=O)[C@@H](OC(C)=O)[C@H](OCc3ccc(C)c([N+](=O)[O-])c3)O[C@@H]2COS(=O)(=O)c2ccc(C)cc2)O[C@H](COS(=O)(=O)c2ccc(C)cc2)[C@H]1OC(C)=O [Example 21, 5-{[2,2′,3,3′,4′-Penta-O-acetyl-6,6′-bis-O-(4-toluenesulfonyl)-β-maltosyl]-oxy-methyl}-2-methyl-1-nitrobenzene] | 67400 nM |
| CC(=O)O[C@@H]1[C@@H](OC(C)=O)[C@@H](O[C@H]2[C@H](OC(C)=O)[C@@H](OC(C)=O)[C@H](OCc3ccc(C)c([N+](=O)[O-])c3)O[C@@H]2Cn2cnc([N+](=O)[O-])c2)O[C@H](Cn2cnc([N+](=O)[O-])c2)[C@H]1OC(C)=O [Example 23, 5-{[2,2′,3,3′,4′-Penta-O-acetyl-6,6′-dideoxy-6,6′-bis(4-nitro-imidazol-1-yl)-β-maltosyl]-oxy-methyl}-2-methyl-1-nitrobenzene] | 4700 nM |

System: not given
Assay: not given
Conditions: not given

| SMILES | melting point |
| --- | --- |
| O=C(Nc1cc(CO[C@@H]2O[C@H](CO)[C@@H](O[C@H]3O[C@H](CO)[C@@H](O)[C@H](O)[C@H]3O)[C@H](O)[C@H]2O)ccc1Cl)c1cccnc1 [Example 16, N-[2-Chloro-5-[[(4-O-α-D-glucopyranosyl-β-D-glucopyranosyl)oxy]methyl]phenyl]-3-pyridinecarboxamide] | > 106 °C (dec.) |
